In one assay the test system is T47D+hHGFR cells. Briefly: AAV vector transduction of T47D+hHGFR cells. The format is cell-based, human. From the text:
(§1) Cell Lines and Cultures. Human cervical cancer (HeLa) and hepatocellular carcinoma (Huh7) cell lines were purchased from American Type Culture Collection (Manassas, Va., USA), and maintained in complete DMEM medium (Mediatech, Inc., Manassas, Va., USA) supplemented with 10% heat-inactivated fetal bovine serum (FBS, Sigma-Aldrich Co.), 1% penicillin and streptomycin (P/S, Lonza, Inc.). A newly established human hepatoblastoma (Hep293TT) cell line (Chen et al., 2009) was maintained in complete RPMI medium 1640 (Invitrogen, Inc.) supplemented with 15% heat-inactivated FBS (Sigma-Aldrich Co.), 1% penicillin and streptomycin (P/S, Lonza, Inc.). Cells were grown as adherent cultures in a humidified atmosphere at 37° C. in 5% CO2 and were sub-cultured after treatment with trypsin-versene mixture (Lonza, Inc.) for 2-5 min at room temperature, washed and re-suspended in complete medium. […]
(§2) Human HGFR is required for AAV3 infectivity. […] Equivalent numbers of T47D and T47D+hHGFR cells were transduced with various multiplicities-of-infection (MOI) of self-complementary (sc) AAV3-CBAp-EGFP vectors under identical conditions and transgene expression was determined 72 hr post-transduction.

Another assay deals with T47D cells. Briefly: AAV3 vector transduction of T47D cells. The format is cell-based, human. Conditions: 1 μM, 2 hr; 10,000 vg/cell.
Source text: as §1, §2

Another assay concerns the target T1, HGFR kinase (Homo sapiens, UniProt P08581).
T1 construct: expressed in transfected cells; host or cells: T47D human breast cancer cells stably transfected with a hHGFR expression plasmid (T47D+hHGFR); parental T47D as control
Briefly: Western blot of HGFR phosphorylation and downstream signaling. The format is cell-based. Particulars: T47D+hHGFR cells. (In western blotting, separated proteins are transferred to a membrane and probed.)

The test system of assay [1] is HeLa cells. Briefly: AAV-EGFP transduction of HeLa cells in the presence of NF-κB modulators. The format is cell-based, human. Particulars: HeLa, scAAV-EGFP. How it is done: (§3) Recombinant AAV Vector Transduction Assays in Vitro. Optimal concentration of NF-κB-modulating compounds was determined by a cell viability assay with tenfold-dilutions from the IC50 or were used as described previously (Wu and Miyamoto, 2008; Kumar et al., 2008). VP16 or Bay11 (10 or 5 μM, final concentration), and PDTC (50 or 25 μM final concentration) were used either alone or in activator/inhibitor combinations. For transduction experiments, approximately 1×10^5 HeLa cells were either pre-treated with these compounds 24 hrs prior to vector infection. Cells were transduced with 500 or 2,000 vector genomes (vgs) per cell of recombinant WT-AAV or TM-AAV vectors encoding the EGFP transgene as described previously (Markusic et al., 2010). After 7 days of culture, primary human dendritic cells were transduced with AAV vectors at 2000 vgs/cell and incubated for 48 hrs. Transgene expression was assessed as total area of green fluorescence (pixel^2) per visual field (mean±SD), or by flow cytometry. Analysis of variance (ANOVA) was used to compare between test results and the control and they were determined to be statistically significant.

The subject of assay [2] is HeLa cells. Briefly: scAAV2 transduction of HeLa cells with MG132 or Tyr23 (positive control). Format: cell-based, human. Conditions: MG132 5 μM; Tyr23 200 μM. As to the method: (§4) AAV Vector Transduction Assays. Huh7 or HeLa cells were seeded in 96-well plates at a concentration of 5,000 cells per well in complete DMEM medium. AAV infections were performed in serum- and antibiotic-free DMEM medium. Hep293TT cells were seeded in 96-well plates at a concentration of 10,000 cells per well in complete RPMI medium. The infections were performed in serum- and antibiotic-free RPMI medium. The expression of EGFP was analyzed by direct fluorescence imaging 72 hrs' post-transduction.
Proteasome Inhibitors Increase the Transduction Efficiency of AAV3 Vectors. […] To evaluate whether MG132 can also improve AAV3 trafficking in target cells, Huh7, a well-established human hepatocellular carcinoma cell line (Nakabayashi et al., 1982), and Hep293TT, a recently established human hepatoblastoma cell line (Chen et al., 2009), were either mock-treated or treated with increasing concentrations of MG132. […] Transgene expression was determined by fluorescence microscopy 72 hrs post-transduction.
Previous studies have also shown that inhibition of EGFR-PTK signaling by Tyrphostin 23 (Tyr23), a specific inhibitor of EGFR-PTK (May et al., 1998), modulates the Ub/proteasome pathway, which in turn, facilitates intracellular trafficking and transgene expression mediated by AAV2 vectors (Zhong et al., 2007). […] Transgene expression was determined 72 hr post-transduction.

Assay [3] deals with HeLa cells. Briefly: Recombinant AAV2 vector transduction assay in vitro (EGFP imaging). The format is cell-based, human. How it is done: Recombinant AAV2 Vector Transduction Assays in Vitro. Approximately 1×10^5 HeLa cells were used for transductions with recombinant AAV2 vectors. The transduction efficiency was measured 48-hr post-transduction by EGFP imaging using fluorescence microscopy. Images from three to five visual fields were analyzed quantitatively by ImageJ analysis software (NIH, Bethesda, Md., USA). Transgene expression was assessed as total area of green fluorescence (pixel^2) per visual field (mean±SD). Analysis of variance (ANOVA) was used to compare between test results and the control and they were determined to be statistically significant.
The transduction efficiency of each of the tyrosine-mutant vectors was analyzed and compared with the WT scAAV2-EGFP vector in HeLa cells in vitro under identical conditions. […] Specifically, the transduction efficiency of Y444F, Y500F, Y730F vectors was ˜8- to 11-fold higher than the WT vector.
In a second study, HeLa cells, either mock-treated or treated with Tyr23, a specific inhibitor of EGFR-PTK, or MG132, a proteasome inhibitor, both known to increase the transduction efficiency of AAV vectors, were mock-infected or infected with the WT or Y730F scAAV2-EGFP vectors.

The next assay relates to Hep293TT cells. Briefly: AAV3 vector transduction assay in Hep293TT cells. Format: cell-based, human. How it is done:
as §4

The test system of assay [4] is primary human dendritic cells. Briefly: AAV-EGFP transduction of primary human dendritic cells with NF-κB modulators (flow cytometry). Format: cell-based. How it is done: as §3
Cells, Antibodies and Chemicals. […]
On the technique in general: Flow cytometry measures light scatter and fluorescence of single cells or particles in a stream.

In assay [5] the test system is non-canonical NF-κB pathway (p100, p52). Briefly: Western blot of NF-κB pathway components in HeLa cells. The format is cell-based, human. Particulars: in the presence of VP16. The source says: Western Blot Analyses. Homogenized lysates of the cell pellets from ˜2×10^6 HeLa cells or DCs, mock or pre-treated with the optimal concentration of NF-κB activators or inhibitors were used for sample preparation. Whole cell proteins were isolated using the RIPA lysis buffer (Sigma-Aldrich Co.) and cytoplasmic and nuclear proteins were extracted using a commercial kit (NE-PER Extraction Reagent Kit, Pierce Biotech, Rockford, Ill., USA) as per the manufacturer's protocol in the presence of a protease inhibitor cocktail (Halt™ Protease Inhibitor Cocktail Kit, Pierce Biotech). The protein extracts were boiled for 5 min under reducing conditions [SDS-sample buffer containing 62.5 mM Tris-HCl (pH 6.8 at 25° C.), 2% wt./vol. SDS, 10% glycerol, 50 mM DTT, 0.01% wt./vol. bromo-phenol blue (Cell Signaling Technology, Inc.)] and stored at −86° C. until further analysis. Equal volumes of samples were run on 4-15% SDS-PAGE (Bio-Rad, Hercules, Calif., USA). […] The intensity of the protein bands was measured with Adobe Photoshop CS3 Software® and normalized to proteins levels from the housekeeping gene products used as loading controls.

Assay [6] has as its system primary human dendritic cells. Briefly: FACS analyses of markers of maturation (CD83, CD86) of primary human dendritic cells. Format: cell-based. As to the method:
Cells, Antibodies and Chemicals. HeLa cells were obtained from the American Type Culture Collection (Rockville, Md., USA) and maintained as monolayer cultures in Iscove's-modified Dulbecco's medium (IMDM, Invitrogen, Inc., Carlsbad, Calif., USA) supplemented with 10% newborn calf serum (NCS) (Lonza, Inc., Basel, SWITZERLAND) and antibiotics. Leukapheresis-derived PBMCs were resuspended in serum-free AIM-V medium (Lonza, Inc.) and semi-adherent cell fractions were incubated in serum-free AIM-V medium supplemented with recombinant human IL-4 (500 U/mL) and GM-CSF (800 U/mL) (R&D Systems, MN, USA). Cells were treated with NF-κB modulators ([…]), and cytokines cocktail including 10 ng/mL TNF-α, 10 ng/mL IL-1, 10 ng/mL IL-6, […] (R&D Systems) for 20 hr. Cells were harvested, characterized to ensure they met the typical phenotype of mature DCs (CD83, RPE, murine IgG1, CD86, FITC, murine IgG1; Invitrogen, Inc.). All primary and secondary antibodies were purchased from Cell Signaling Technology, Inc. (Danvers, Mass., USA) or Santa Cruz Biotechnology, Inc (Santa Cruz, Calif., USA). NF-kB activators [Etoposide (VP16), Aphidicolin, Hydroxyurea (HU)] and NF-kB inhibitors [Bay11-7082 (Bay11), Pyrrolidine dithiocarbamate (PDTC)] were purchased from Sigma-Aldrich Co. (St. Louis, Mo., USA). These compounds were re-suspended in either DMSO (Sigma-Aldrich Co.) or in sterile, DNAase-, RNAase-free water (Invitrogen, Inc.) as per the manufacturer's instructions.

A further assay relates to K562 cells. Briefly: AAV6 transduction of K562 cells after enzyme / inhibitor treatment. Format: cell-based, human. The source says: More recently, Denard et al. reported that galectin-3-binding protein in human sera agglutinates AAV6 vectors, which results in decreased transduction efficiency of these vectors. […] The identity of the putative receptor for AAV6 vectors in human CD34^+ cells remains elusive, and additional studies are warranted. […] The implication is that AAV6 uses a protein rather than a lipid on K562 cells for binding and entry into these cells. In addition, because AAV6 is known to have evolved from recombination between AAV1 and AAV2, and because AAV2 uses heparan sulfateproteoglycan (HSPG) as the primary cellular receptor, the level of HSPG expression on K562 cells surface was examined by FACS. […] The effect of inhibitors of O-linked and N-linked glycosylation was also evaluated on the transduction efficiency of AAV6 vectors in K562 cells.

[7] abbreviates: Mature DCs + AAV + Cytokines + modulator.

Entries after “also recorded” stand apart in the source; their conditions may differ.

T1 sequence (P08581 25-1390): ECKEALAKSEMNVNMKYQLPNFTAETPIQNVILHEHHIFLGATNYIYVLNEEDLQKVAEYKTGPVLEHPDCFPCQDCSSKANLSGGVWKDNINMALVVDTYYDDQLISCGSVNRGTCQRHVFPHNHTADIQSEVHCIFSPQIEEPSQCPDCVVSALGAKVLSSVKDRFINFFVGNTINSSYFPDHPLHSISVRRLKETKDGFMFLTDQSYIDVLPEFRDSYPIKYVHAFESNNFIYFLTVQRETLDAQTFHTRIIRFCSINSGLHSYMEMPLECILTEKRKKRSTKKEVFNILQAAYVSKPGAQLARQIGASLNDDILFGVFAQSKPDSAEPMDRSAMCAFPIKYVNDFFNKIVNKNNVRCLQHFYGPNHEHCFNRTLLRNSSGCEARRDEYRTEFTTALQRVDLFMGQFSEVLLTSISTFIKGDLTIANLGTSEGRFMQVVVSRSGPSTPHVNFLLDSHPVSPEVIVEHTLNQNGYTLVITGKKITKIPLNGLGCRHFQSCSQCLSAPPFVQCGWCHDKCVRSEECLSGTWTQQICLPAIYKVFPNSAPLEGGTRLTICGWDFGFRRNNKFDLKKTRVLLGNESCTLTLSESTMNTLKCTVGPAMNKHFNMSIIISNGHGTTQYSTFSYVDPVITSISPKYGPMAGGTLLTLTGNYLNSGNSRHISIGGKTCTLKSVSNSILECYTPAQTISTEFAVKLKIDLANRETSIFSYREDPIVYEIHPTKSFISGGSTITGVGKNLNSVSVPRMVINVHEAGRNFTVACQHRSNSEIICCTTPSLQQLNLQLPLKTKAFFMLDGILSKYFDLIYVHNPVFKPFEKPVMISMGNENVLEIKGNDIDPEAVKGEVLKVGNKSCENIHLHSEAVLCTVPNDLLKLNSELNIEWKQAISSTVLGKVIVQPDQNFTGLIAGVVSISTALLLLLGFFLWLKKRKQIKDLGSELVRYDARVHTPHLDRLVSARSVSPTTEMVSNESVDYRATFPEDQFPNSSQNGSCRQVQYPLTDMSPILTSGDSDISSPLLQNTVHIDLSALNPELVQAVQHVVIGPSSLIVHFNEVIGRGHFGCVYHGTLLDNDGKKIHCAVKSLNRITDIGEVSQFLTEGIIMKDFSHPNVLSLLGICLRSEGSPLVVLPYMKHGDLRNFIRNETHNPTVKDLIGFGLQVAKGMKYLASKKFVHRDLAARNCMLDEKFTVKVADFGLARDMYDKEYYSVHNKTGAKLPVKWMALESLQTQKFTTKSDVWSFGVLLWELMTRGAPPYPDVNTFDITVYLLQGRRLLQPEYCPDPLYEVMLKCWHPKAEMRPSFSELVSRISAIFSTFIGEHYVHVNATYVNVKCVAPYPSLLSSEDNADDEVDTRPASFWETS
Protocol for HGFR kinase: Cells were harvested and disrupted in a radio-immunoprecipitation assay (RIPA) lysis buffer (50 mM Tris-HCl, pH 8.0, 150 mM NaCl, 0.1% SDS, 1% NP-40, 0.25% sodium deoxycholate and 1 mM EDTA with protease inhibitor cocktail, 1 mM NaF and 1 mM Na3VO4). Total protein concentration was measured using a Bradford reagent (Bio-Rad) and equal amounts (50 μg) of whole cell lysates were resolved by SDS-PAGE. After electrophoresis, samples were electro-transferred to a nitrocellulose membrane (Bio-Rad), probed with relevant primary antibodies at 4° C. overnight, incubated with horseradish peroxidase-conjugated secondary antibodies (Jackson ImmunoResearch, West Grove, Pa., USA), and detected with an enhanced chemi-luminescence substrate (Amersham). […]
To examine whether inhibition of the HGFR kinase led to alterations in the phosphorylation status of specific cellular proteins involved in the downstream signaling pathway total and phosphorylation levels of the HGFR protein in both T47D and T47D+hHGFR lysates were determined following a 2-hr drug-incubation period. Activation of signaling pathways downstream from HGFR kinase, ERK1/2 and Akt, were analyzed using phosphorylation-specific antibodies.

Take `CCOc1ccn(-c2ccc(F)cc2)c(=O)c1C(=O)Nc1ccc(Oc2ccnc(N)c2Cl)c(F)c1` [BMS-777607, N-(4-(2-amino-3-chloropyridin-4-yloxy)-3-fluorophenyl)-4-ethoxy-1-(4-fluorophenyl)-2-oxo-1,2-dihydropyridine-3-carboxamide]: the AAV3 infectivity entry in the assay with T47D+hHGFR cells (1 μM, 2 hr, 10,000 vg/cell) is on record as “significantly enhanced”; in the assay on T47D cells it was “no effect”. For the same compound, the “expression of phosphorylated AKT and ERK1/2” value at HGFR kinase is recorded as “no effect”. On HGFR kinase (2-hr incubation), the “phosphorylation of HGFR” value was “completely blocked”.
In the case of `S=C(S)N1CCCC1` [PDTC, Pyrrolidine dithiocarbamate], the “AAV vector-mediated EGFP expression, fold augmentation” value in the assay with HeLa cells [1] is on record as “had no effect; also recorded: no noticeable effect”.
As for `N#CC(C#N)=Cc1ccc(O)c(O)c1` [Tyr23, Tyrphostin 23], the “transduction efficiency of scAAV2 vectors after pretreatment” value in the assay on HeLa cells [2] is “significant increase”. Further, in the assay with HeLa cells [3], the “increase in transduction efficiency of WT scAAV2-EGFP by pretreatment” value is given as about 9 fold. Also, the “amounts of internalized viral DNA in presence or absence of inhibitor” value with Hep293TT cells is “no significant difference”. Moreover, the “transduction efficiency of scAAV3 vectors after treatment” value with Hep293TT cells (2 hr treatment) is on record as “significant increase”.
As to `COc1cc([C@@H]2c3cc4c(cc3[C@@H](O[C@@H]3O[C@@H]5CO[C@@H](C)O[C@H]5[C@H](O)[C@H]3O)[C@H]3COC(=O)[C@H]23)OCO4)cc(OC)c1O` [VP16, Etoposide], the “EGFP expression increase compared with scAAV vector-transduced DCs” value in assay [4] is given as about 20 fold. For the same compound, the “increase in cytosolic p100 and nuclear p52” value in assay [5] is listed as 3- to 6 fold. Also, the “maturation of DCs (CD83, CD86)” value in assay [6] was “not able to induce maturation”. In assay [6] (DCs without cytokines), the “Geometric means of levels of expression in cells expressing CD83” value is on record as 16.48 and the “Geometric means of levels of expression in cells expressing CD86” value is 13.70. In [6] (setting [7]), the “Geometric means of levels of expression in cells expressing CD83” value was 19.92 and the “Geometric means of levels of expression in cells expressing CD86” value came to 21.92.
As to hHGF: human hepatocyte growth factor, the “AAV3 vector-mediated transduction in the presence of hHGF” value with T47D+hHGFR cells (5 μg/mL hHGF, 2,000 vgs/cell) is on record as “completely blocked”.
With heparin, the “effect on AAV6 vector-mediated transduction of K562 cells” value with K562 cells was “could not be inhibited”.
Take phospholipase A2: in the assay with K562 cells, the “effect on AAV6 vector-mediated transduction of K562 cells” value is recorded as “no significant change”.
Still for that read-out and setting: as for tunicamycin, the entry is “markedly reduced”.

For the origin of these results see patent publication US12358954B2, “Capsid-modified rAAV vector compositions and methods therefor” (priority 2012, dated 2025).
